# Measurements as given in patent US20240034743A9, “TRICYCLIC COMPOUNDS AS EGFR INHIBITORS” (QILU PHARMACEUTICAL CO., LTD., priority 2020, published 2024).
# Read-outs that look alike come from different tables or passages of the source.
# Legend:
# A431 cells (EGFR WT) = test: A431 cell proliferation inhibition assay (CellTiter-Glo); type: cell-based; settings: Homo sapiens
# Experimental: A431 Cell Proliferation Inhibition Assay
# In the assay, the inhibition effect of the compounds on the proliferation of A431 cells was tested by adopting a CellTiter-Glo method, and the concentration IC50 of the compound for inhibiting half maximal growth of cells was obtained.
# A431 cells, purchased from ATCC.
# DMEM medium, fetal bovine serum (FBS), and Penicillin-Streptomycin, purchased from GIBCO.
# (§1) Brigatinib, purchased from Selleck.
# (§2) CellTiter-Glo reagent, purchased from Promega.
# 1) A431 cells were seeded in a 384-well plate at a density of 800 cells/well with 30 μL/well, and the plate was cultured in a cell incubator for 24 h (37° C., 5% CO2).
# (§3) 2) Day 0: […] of gradiently-diluted compounds to be tested with a final concentration of DMSO of 0.1% was added to plate using Echo, and the plate was incubated in a cell incubator for 72 h (37° C., 5% CO2). […] of DMSO was added into each well in blank control group.
# (§4) 3) Day 3: 30 μL Cell Titer-Glo reagent was added to each well, and the plate was in the dark under room temperature for 30 min.
# (§5) 4) The chemiluminescent signal was detected by an Envision plate reader (PerkinElmer).
# (§6) 5) Data analysis was performed using GraphPad Prism software to give the IC50 for compounds.
# [1] = system: Ba/F3_L858R/T790M/C797S cells; test: Ba/F3_L858R/T790M/C797S cell proliferation inhibition assay (CellTiter-Glo); type: cell-based; settings: Mus musculus
# Experimental: Ba/F3_L858R/T790M/C797S Cell Proliferation Inhibition Assay
# In the assay, the inhibition effect of the compounds on the proliferation of Ba/F3_L858R/T790M/C797S cells was tested by adopting a CellTiter-Glo method, and the concentration IC50 of the compound for inhibiting half maximal growth of cells was obtained.
# Ba/F3_L858R/T790M/C797S cells were constructed by Pharmaron Beijing Co., Ltd.
# 1640 medium, fetal bovine serum (FBS), Penicillin-Streptomyces, and GlutaMAX-I Supplement, purchased from GIBCO.
# as §1, §2
# 1) Ba/F3_L858R/T790M/C797S cells were seeded in a 384-well plate at a density of 700 cells/well with 30 μL/well.
# as §3, §4, §5, §6
# [2] = system: Ba/F3_Del19/T790M/C797S cells; test: Ba/F3_Del19/T790M/C797S cell proliferation inhibition assay (CellTiter-Glo); type: cell-based; settings: Mus musculus
# Experimental: Ba/F3_Del19/T790M/C797S Cell Proliferation Inhibition Assay
# In the assay, the inhibition effect of the compounds on the proliferation of Ba/F3_Del19/T790M/C797S cells was tested by adopting a CellTiter-Glo method, and the concentration IC50 of the compound for inhibiting half maximal growth of cells was obtained.
# Ba/F3_Del19/T790M/C797S, purchased from Kyinno Biotechnology Co., Ltd. 1640 medium, fetal bovine serum (FBS), Penicillin-Streptomyces, and GlutaMAX-I Supplement, purchased from GIBCO.
# as §1, §2
# 1) Ba/F3_Del19/T790M/C797S cells were seeded in a 384-well plate at a density of 700 cells/well with 30 μL/well.
# as §3, §4, §5
# Data analysis was performed using GraphPad Prism 6 software to give the IC50 for compounds.
# EGFR WT (wild type EGFR) = EGFR WT (wild type EGFR) (Homo sapiens (Human), UniProt P00533); test: In vitro enzymatic TR-FRET (HTRF KinEASE-TK) kinase assay, EGFR WT; type: biochemical; settings: kinase activity, TR-FRET; read-out: EGFR (WT) IC50
# Experimental: (I) In Vitro Enzymatic Experiment for EGFR WT and EGFR L858R/T790M/C797S
# In the assay, the inhibition effect of the compound on the kinase activity of EGFR WT (wild type EGFR) and EGFR L858R/T790M/C797S was tested by adopting a time-resolved fluorescence resonance energy transfer (TR-FRET) method, and half maximal inhibitory concentration IC50 of the compound on the kinase activity of EGFR was obtained.
# EGFR recombinase and EGFR L858R/T790M/C797S recombinase, purchased from Signalchem.
# HTRF KinEASE-TK kit, purchased from Cisbio.
# DTT, MnCl2, and MgCl2, purchased from Sigma.
# ATP, purchased from Promega.
# as §1
# 1) 1× working solution was prepared: 5 mM MgCl2; 1 mM DTT; 1 mM MnCl2 and 1× kinase buffer (in kit).
# 2) […] of gradiently-diluted compound was transferred to a 384-well plate using Echo 550 (Labcyte).
# 3) 5 μL of 2× EGFR WT or EGFR L858R/T790M/C797S recombinase solution was added to the 384-well plate, and the plate was incubated at room temperature for 10 min.
# 4) 5 μL of 2× TK-substrate-biotin substrate solution (containing ATP) was added to the 384-well plate, and the plate was incubated at room temperature for 40 min.
# 5) 5 μL of assay solution containing Sa-XL 665 HTRF and 5 μL of TK-antibody-Cryptatewas were added to the plate, and the plate was incubated at room temperature for 1 h.
# 6) The fluorescence signal values at 615 nm and 665 nm were measured for each well using an Envision microplate reader (PerkinElmer).
# 7) The ratio of fluorescence signal values at 665 nm and 615 nm was calculated for each well.
# 8) Data analysis was performed using GraphPad Prism software to give the IC50 for compounds.
# [3] = A-431, cell proliferation, 72 h, CellTiter-Glo, read-out: A431 EGFR WT IC50
# [4] = BaF3, cell proliferation, 72 h, CellTiter-Glo, read-out: Ba/F3 (L858R/T790M/C797S) IC50
# [5] = BaF3, cell proliferation, 72 h, CellTiter-Glo, read-out: Ba/F3 (Del19/T790M/C797S) IC50
# [6] = A-431, 72 h, read-out: A431 EGFR WT IC50(nM)
# [7] = BaF3, 72 h, read-out: Ba/F3 (L858R/T790M/C797S) IC50(nM)
# [8] = BaF3, 72 h, read-out: Ba/F3 (Del19/T790M/C797S) IC50(nM)
# Sequence of EGFR WT (wild type EGFR) (P00533 25-1210): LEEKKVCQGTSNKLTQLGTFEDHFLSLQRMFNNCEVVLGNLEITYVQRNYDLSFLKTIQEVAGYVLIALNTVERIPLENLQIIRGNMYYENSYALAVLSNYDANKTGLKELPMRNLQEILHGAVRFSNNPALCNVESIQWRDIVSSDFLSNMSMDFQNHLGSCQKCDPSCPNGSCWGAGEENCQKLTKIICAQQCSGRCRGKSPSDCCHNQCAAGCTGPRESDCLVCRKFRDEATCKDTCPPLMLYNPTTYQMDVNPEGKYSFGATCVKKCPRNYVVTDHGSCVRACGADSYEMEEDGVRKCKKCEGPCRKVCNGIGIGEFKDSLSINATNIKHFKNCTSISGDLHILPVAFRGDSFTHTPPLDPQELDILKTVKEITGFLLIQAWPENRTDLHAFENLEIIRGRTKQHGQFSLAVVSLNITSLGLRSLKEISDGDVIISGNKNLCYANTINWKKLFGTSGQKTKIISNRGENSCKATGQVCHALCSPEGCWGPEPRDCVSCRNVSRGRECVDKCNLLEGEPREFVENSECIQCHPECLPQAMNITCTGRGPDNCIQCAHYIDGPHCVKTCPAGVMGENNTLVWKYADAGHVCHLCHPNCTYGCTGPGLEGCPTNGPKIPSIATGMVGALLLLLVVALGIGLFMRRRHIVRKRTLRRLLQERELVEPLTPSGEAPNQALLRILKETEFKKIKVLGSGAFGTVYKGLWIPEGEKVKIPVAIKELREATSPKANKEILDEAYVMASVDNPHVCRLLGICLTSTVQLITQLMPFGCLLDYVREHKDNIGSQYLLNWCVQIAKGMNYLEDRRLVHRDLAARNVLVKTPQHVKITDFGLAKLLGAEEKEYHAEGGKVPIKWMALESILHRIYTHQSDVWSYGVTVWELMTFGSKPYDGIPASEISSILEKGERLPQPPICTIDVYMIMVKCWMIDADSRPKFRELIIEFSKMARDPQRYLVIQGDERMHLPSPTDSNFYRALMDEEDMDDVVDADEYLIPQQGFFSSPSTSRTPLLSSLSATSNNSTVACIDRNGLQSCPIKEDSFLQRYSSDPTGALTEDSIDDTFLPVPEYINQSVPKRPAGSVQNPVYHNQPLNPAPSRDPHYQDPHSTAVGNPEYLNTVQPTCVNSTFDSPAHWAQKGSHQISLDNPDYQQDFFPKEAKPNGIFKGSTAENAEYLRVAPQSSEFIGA
Compound,IC50 (A431 cells (EGFR WT); [3]) [nM],"IC50 [1, 4] [nM]","IC50 [2, 5] [nM]",IC50 (EGFR WT (wild type EGFR)) [nM],IC50 (A431 cells (EGFR WT); [6]) [nM],"IC50 [1, 7] [nM]","IC50 [2, 8] [nM]"
COc1cc2c(cc1Nc1ncc(Br)c(Nc3ccc4nccnc4c3P(C)(C)=O)n1)-c1cnn(C)c1CCN2 [Compound 16],,,,1 to 10,50 to 100,< 10,< 10
CCN1CCc2c(cnn2C)-c2cc(Nc3ncc(C)c(Nc4ccccc4P(C)(C)=O)n3)c(OC)cc21 [Compound 19],100 to 1000,10 to 50,< 10,1 to 10,,,
COc1cc2c(cc1Nc1ncc(C(F)(F)F)c(Nc3ccccc3P(C)(C)=O)n1)-c1cnn(C)c1CCN2C [Compound 26],100 to 1000,< 10,< 10,10 to 50,,,
COc1cc2c(cc1Nc1ncc(Br)c(Nc3ccccc3P(C)(C)=O)n1)-c1cnn(C)c1CCN2 [Compound 28],,,,1 to 10,100 to 1000,< 10,< 10
COc1cc2c(cc1Nc1ncc(Br)c(Nc3ccccc3P(C)(C)=O)n1)-c1ccnn1CCN2C [Compound 29],100 to 1000,10 to 50,10 to 50,10 to 50,,,
COc1cc2c(cc1Nc1nc(Nc3ccccc3P(C)(C)=O)c3cc[nH]c3n1)-c1cnn(C)c1CCN2C [Compound 36],100 to 1000,< 10,< 10,1 to 10,,,
COc1cc2c(cc1Nc1ncc(Br)c(Nc3ccccc3P(C)(C)=O)n1)-c1cn[nH]c1CCN2C [Compound 37],100 to 1000,10 to 50,< 10,1 to 10,,,
COc1cc2c(cc1Nc1ncc(Br)c(Nc3ccccc3P(C)(C)=O)n1)-c1cnn(C)c1CCC2 [Compound 38],100 to 1000,50 to 100,10 to 50,10 to 50,,,
CCn1ncc2c1CCN(C)c1cc(OC)c(Nc3ncc(Br)c(Nc4ccccc4P(C)(C)=O)n3)cc1-2 [Compound 39],,,,10 to 50,100 to 1000,10 to 50,10 to 50
COc1cc2c(cc1Nc1ncc(Br)c(Nc3ccccc3P(C)(C)=O)n1)-c1cnn(C)c1CC=C2 [Compound 40],100 to 1000,10 to 50,< 10,10 to 50,,,
COc1cc2c(cc1Nc1ncc(Br)c(Nc3ccccc3P(C)(C)=O)n1)-c1cnn(C)c1CCN2CCN1CCC(F)CC1 [Compound 41],100 to 1000,< 10,< 10,1 to 10,,,
COc1cc2c(cc1Nc1ncc(Br)c(Nc3ccccc3P(C)(C)=O)n1)-c1scnc1CCN2C [Compound 42],100 to 1000,< 10,< 10,1 to 10,,,
COc1cc2c(cc1Nc1ncc(Br)c(Nc3ccccc3P(C)(C)=O)n1)-c1cnn(C)c1COC2 [Compound 46],100 to 1000,10 to 50,10 to 50,10 to 50,,,
COc1cc2c(cc1Nc1ncc(Br)c(Nc3ccccc3P(C)(C)=O)n1)-c1cnn(C)c1CCN2C1CCN(C)CC1 [Compound 47],50 to 100,10 to 50,< 10,1 to 10,,,
COc1cc2c(cc1Nc1ncc(Br)c(Nc3ccccc3P(C)(C)=O)n1)-c1cnnn1CCN2C [Compound 48],100 to 1000,10 to 50,< 10,10 to 50,,,
COc1cc2c(cc1Nc1ncc(Br)c(Nc3ccccc3P(C)(C)=O)n1)-c1cnn(C)c1CNC2 [Compound 49],100 to 1000,10 to 50,10 to 50,10 to 50,,,

# Continued, in another order:
IC50 (A431 cells (EGFR WT); [3]) [nM],"IC50 [1, 4] [nM]","IC50 [2, 5] [nM]",IC50 (EGFR WT (wild type EGFR)) [nM],Compound,IC50 (A431 cells (EGFR WT); [6]) [nM],"IC50 [1, 7] [nM]","IC50 [2, 8] [nM]"
100 to 1000,10 to 50,10 to 50,10 to 50,COc1cc2c(cc1Nc1ncc(Br)c(Nc3ccc4nccnc4c3P(C)(C)=O)n1)-c1cnn(C)c1CN(C)C2=O [Compound 9],,,
100 to 1000,< 10,< 10,1 to 10,COc1cc2c(cc1Nc1ncc(Br)c(Nc3ccc4nccnc4c3P(C)(C)=O)n1)-c1cnn(C)c1CN(C)C2 [Compound 11],,,
100 to 1000,< 10,< 10,1 to 10,COc1cc2c(cc1Nc1ncc(Br)c(Nc3ccc4nccnc4c3P(C)(C)=O)n1)-c1cnn(C)c1CCN2CC1CC1 [Compound 12],,,
100 to 1000,< 10,< 10,1 to 10,COc1cc2c(cc1Nc1ncc(Cl)c(Nc3ccccc3P(C)(C)=O)n1)-c1cnn(C)c1CCN2C [Compound 14],,,
100 to 1000,10 to 50,< 10,10 to 50,COc1cc2c(cc1Nc1ncc(Br)c(Nc3ccc4nccnc4c3P(C)(C)=O)n1)-c1cnn(C)c1CCN2C(C)=O [Compound 15],,,
100 to 1000,< 10,< 10,1 to 10,CCN1CCc2c(cnn2C)-c2cc(Nc3ncc(Br)c(Nc4ccccc4P(C)(C)=O)n3)c(OC)cc21 [Compound 20],,,
100 to 1000,< 10,< 10,1 to 10,COc1cc2c(cc1Nc1ncc(Br)c(Nc3ccc4nccnc4c3N(C)S(=O)(=O)C3CC3)n1)-c1cnn(C)c1CCN2C [Compound 21],,,
100 to 1000,< 10,< 10,1 to 10,COc1cc2c(cc1Nc1ncc(Br)c(Nc3ccc4nccnc4c3P(C)(C)=O)n1)-c1cnn(C)c1CCC2O (centres unmarked) [Compound 24],,,
100 to 1000,10 to 50,< 10,1 to 10,CCc1cnc(Nc2cc3c(cc2OC)N(C)CCc2c-3cnn2C)nc1Nc1ccccc1P(C)(C)=O [Compound 25],,,
100 to 1000,10 to 50,< 10,1 to 10,COc1cc2c(cc1Nc1ncc(Br)c(Nc3ccc4nccnc4c3P(C)(C)=O)n1)-c1cnn(C)c1CC(O)C2 (centres unmarked) [Compound 31],,,
50 to 100,< 10,< 10,1 to 10,COc1cc2c(cc1Nc1ncc(Br)c(Nc3ccc4nccnc4c3P(C)(C)=O)n1)-c1cnn(C)c1CCO2 [Compound 33],,,
50 to 100,< 10,< 10,1 to 10,COc1cc2c(cc1Nc1ncc(Br)c(Nc3ccc(F)cc3P(C)(C)=O)n1)-c1cnn(C)c1CCN2C [Compound 43],,,
100 to 1000,10 to 50,< 10,1 to 10,COc1cc2c(cc1Nc1ncc(Br)c(Nc3cccnc3P(C)(C)=O)n1)-c1cnn(C)c1CCN2C [Compound 44],,,
